For data set [1], the system named is E. coli ATCC 25922. The data set can be described thus: Cell survival (colony forming unit) with or without illumination. The class given is cell-based, Escherichia coli. The following applies: E. coli. The protocol: (§1) The toxic effects of exemplary compounds of the invention against two bacterial strains, the Gram negative bacterium Escherichia coli (strain ATCC 25922) and the Gram positive bacterium Staphylococcus aureus (methicillin-resistant strain ATTC BAA-44), were evaluated by measuring the extent of growth inhibition (bacteriostatic effect) and growth […] (cytocidal effect) in the dark and upon light exposure. Initial compound screening was undertaken using white light [390-740 nm] (150 mW/cm^2) for various timepoints of a concentration of 3 μM (see Table 1). Further experiments were undertaken on those compounds identified from this initial screen using a light source emitting light at a wavelength between 417-420 nm at 15.2 mW/cm^2, 13.68 J/cm^2 (Waldmann Eclairage SA, France) (see Table 20.
(§2) For the further investigation of the exemplary compounds (Table 2), the following protocol was adopted: • (i) Bacteria (S. aureus BAA-44 and E. coli 25922) were grown in brain heart infusion (BHI) broth until they reached the stationary phase of growth. • (ii) The cells were harvested by centrifugation (3000 g for 15 min) with a table centrifuge, washed with 10 mM PBS at pH 7.4 containing 2.7 mM KCl and 0.14 M NaCl and suspended in PBS at an optical density of 0.7 at 650 nm corresponding to 10^8-10^9 cells/ml. • (iii) The bacteria, at the desired cell density (˜10^8 cells/ml) were incubated for 5 min in the dark with various concentrations of the exemplary compounds. • (iv) At the end of the incubation period the cells were washed three times with PBS, suspended in PBS, transferred into a 96-well microtitre plate (200 μl/well) and illuminated for 15 min with the Waldmann light source (15.2 mW/cm^2; 13.7 J/cm^2). The cells were illuminated from the bottom of the plate laying it on the glass cover of the lamp. • (v) After illumination, cell survival was determined by plating serially diluted aliquots of treated and untreated (i.e. no exemplary compound or light present) cells onto brain heart agar (BHA) and counting the number of colonies after 18-24 h incubation at 37° C.
(§3) the above colony forming unit (CFU) protocol was also used to investigate the photodynamic activity of very low concentrations of the compounds of the invention.

For data set [2], the system named is S. aureus ATCC BAA-44 (a methicillin resistant S. aureus). The data set is described as above. The class given is cell-based, Staphylococcus aureus. As to conditions: S. aureus. The procedure: as §1, §2, §3
Data set [3] concerns normal human dermal fibroblasts (NHDF). The data set can be described thus: Toxicity against human skin cells, MTT-assay. The class given is cell-based. The procedure: (§4) Test compounds were screened for toxicity against cultured human skin cells using normal human epidermal keratinocytes (NHEK) and normal human dermal fibroblasts (NHDF), purchased from CellSystems Biotechnologie GmbH, Germany.
(§5) The NHEK and NHDF cells were used between passages 3 and 10. The cells were seeded with 7.5 and/or 15×10^4 cells/well (microtitreplate) and allowed to attach overnight in an incubator (37° C., 5% CO2). […]
(§6) Phototoxicity was tested by standard MTT-assay (Mossman et al., 1983, Immunological Methods 65:55-63). MTT is an indicator of metabolically active cells. Dependent on enzyme activity in mitochondria a colour reaction can be visualised, which can be measured by ELISA reader (540 nm). The cell viability data were normalised, i.e. the OD values of cells after PDT without photosensitisers were adjusted to one. Each experiment was repeated three times.
Background: Tetrazolium dyes change colour on reduction, which living cells bring about.

The test system of data set [4] is normal human epidermal keratinocytes (NHEK). The data set can be described thus: Toxicity against human skin cells, MTT-assay. The class given is cell-based. The protocol: as §4, §5, §6
Data set [5] deals with bacterial cells compared to human skin cells. The data set can be described thus: Selectivity for bacteria compared to human skin cells. The class given is cell-based. The procedure: as §2, §4
The NHEK and NHDF cells were used between passages 3 and 10. The cells were seeded with 7.5 and/or 15×10^4 cells/well (microtitreplate) and allowed to attach overnight in an incubator (37° C., 5% CO2). After incubation with different concentrations of the selected photosensitisers, the cells were illuminated for fifteen minutes (Light source 236, Waldmann; 15.2 mW/cm^2, 13.7 J/cm^2) and then incubated for 24 hours in the dark.
as §6

Data set [6] can be described thus: Chemical stability, qualitative stress tests (HPLC, LC-MS). As to conditions: solid, aqueous solution and PBS; 7 days each at 50° C., 70° C., 90° C. The class given is physicochemical. The protocol:
The following HPLC methodology was established for the analysis of the exemplary compounds of the invention.
The method involves detection by UV at a wavelength of 420 nm, which is very specific for these compounds. In order to monitor impurities not related to the porphyrin structure (and therefore not absorbing at 420 nm) UV spectra of the whole chromatograms were also recorded between 200 nm and 700 nm by DAD (diode array detector) in certain experiments.
Qualitative stress tests were undertaken on the exemplary compounds of the invention. Analysis was undertaken by HPLC & LC-MS. The compounds were stress tested in solid form, in an aqueous solution and a solution made up in phosphate-buffered saline buffer. The samples were initially incubated for 7 days at 50° C. and a sample removed for testing. The samples were then incubated for a further 7 days at 70° C., samples removed as before and the samples incubated further for 7 days at 90° C. HPLC analysis of freshly prepared solutions was undertaken and compared to the samples after 7, 14 and 21 days incubation. A visual comparison of the chromatograms was then undertaken and the content of the main products and by-products as area percentage values determined (see FIG. 11).

The mark [7] stands for this setting: dark toxicity (no illumination), 1 μM.
Where [8] appears, read: photodynamic activity, 1 μM, illumination 15 min.
Setting [9] is: photodynamic activity, 0.1 μM, illumination 15 min.
Setting [10] is: dark toxicity, 1 μM, no illumination.
Where [11] appears, read: dark toxicity, 10 μM, no illumination.
Setting [12] is: photodynamic activity (light toxicity), 0.01 μM, illumination 15 min.
[13] abbreviates: photodynamic activity (light toxicity), 0.1 μM, illumination 15 min.
[14] abbreviates: photodynamic activity (light toxicity), 1 μM, illumination 15 min.

The results in this text go back to US8084602B2, “Porphyrin derivatives and their use in photodynamic therapy” (Destiny Pharma Limited, priority 2002, dated 2011).

Each structure is given as a SMILES string.

For the compound `C[N+](C)(C)CCCOc1cccc(-c2c3nc(cc4ccc([nH]4)c(-c4cccc(OCCC[N+](C)(C)C)c4)c4nc(cc5ccc2[nH]5)C=C4)C=C3)c1.[Cl-].[Cl-]` [Compound 12, 5,15-bis-[3-(3-trimethylammonio-propyloxy)-phenyl]-porphyrin dichloride], the Log reduction in data set [1] (setting [7]) was <1 (<10^−1); in data set [1] (photodynamic activity, 0.5 μM, illumination 15 min), <1 (<10^−1); in data set [1] (setting [8]), >6 (>10^−6); in data set [2] (setting [7]), <1 (<10^−1); in data set [2] (photodynamic activity, 0.005 μM, illumination 15 min) it was <2 (<10^−2); in data set [2] (setting [9]), >3 (>10^−3). For the same compound, in data set [2] (setting [8]), the Log reduction is recorded as >6 (>10^−6). Also, the Survival in data set [3] (setting [10]) worked out at 100%; in data set [3] (setting [11]) it was 95%; in data set [3] (setting [12]), 100%; in data set [3] (setting [13]), 85%; in data set [3] (setting [14]), 1.0%; in data set [4] (setting [10]), 100%. For the same compound, the Survival in data set [4] (setting [11]) stood at 92%; in data set [4] (setting [12]) it was 97%; in data set [4] (setting [13]), 75%; in data set [4] (setting [14]), 0.5%. Moreover, the “toxicity to bacterial cells compared to human skin cells” value in data set [5] (at a dose of 0.1 μM) is on record as “preferentially toxic to bacterial cells compared to human skin cells”. The “chemical stability under stress test” value in data set [6] is “good stability”.

Consider `C[N+](C)(C)CCCOc1ccc(-c2c3nc(c(-c4ccc(OCCC[N+](C)(C)C)cc4)c4ccc([nH]4)c(-c4ccc(OCCC[N+](C)(C)C)cc4)c4nc(c(-c5ccc(OCCC[N+](C)(C)C)cc5)c5ccc2[nH]5)C=C4)C=C3)cc1.[Cl-].[Cl-].[Cl-].[Cl-]` [Compound 1, 5,10,15,20-tetrakis-[4-(3-Trimethylammonio-propyloxy)-phenyl]-porphyrin tetrachloride, reference compound], for which the Log reduction is given as <1 (<10^−1) in data set [2] (dark toxicity (no illumination), 10 μM); <1 (<10^−1) in data set [2] (setting [9]); >6 (>10^−6) in data set [2] (setting [8]). Moreover, the Survival in data set [3] (setting [10]) worked out at 100%; in data set [3] (setting [11]), 92%; in data set [3] (setting [12]) it was 100%; in data set [3] (setting [13]) it was 39%; in data set [3] (setting [14]), 2%; in data set [4] (setting [10]), 100%. Moreover, the Survival in data set [4] (setting [11]) was found to be 83%; in data set [4] (setting [12]), 94%; in data set [4] (setting [13]), 52%; in data set [4] (setting [14]) it was 0.4%. For the same compound, in data set [5], the “toxicity to bacterial cells compared to human cells” value is “equal toxicity to bacterial and human cells”.
